Assay results reported in patent US20220315532A1, “METHODS FOR PREPARING CDK4/6 INHIBITOR AND SALT AND INTERMEDIATE THEREOF” (Gan & Lee Pharmaceuticals Co., Ltd., priority 2019, published 2022).

Assays:
Type in all cases: physicochemical
[1] = physical and chemical stability under high humidity and illumination; settings: compared with free base
solubility in water = settings: compared with the free base
[2] = solubility in simulated intestinal fluid (FaSSIF, FeSSIF); settings: compared with the free base
[3] = hygroscopicity and crystalline form after moisture absorption

- physical and chemical stability [1]: better physical and chemical stability
- solubility in water (solubility in water): higher solubility
- solubility in fasted state simulated intestinal fluid (FaSSIF) [2]: higher solubility
- crystalline form stability ([3]; after moisture absorption): stable in crystalline form
Structure (SMILES): CC1=Nc2c(F)cc(-c3nc(Nc4ccc(C5CCN(C)CC5)cn4)ncc3F)cc2C12CCCC2.O=C(O)/C=C/C(=O)O [fumarate, fumarate of 5-fluoro-4-(7′-fluoro-2′-methylspiro[cyclopentane-1,3′-indol]-5′-yl)-N-(5-(1-methylpiperidin-4-yl)pyridin-2-yl)pyrimidin-2-amine]
- hygroscopicity ([3]; compared with the free base): low hygroscopicity comparable to the free base
